Measurements reported in patent publication US5210193A, “Piperazine derivatives” (American Cyanamid Company, priority 1990, dated 1993).
Converted amounts (≈) assume the structure as drawn.

Tests used:
Test in all cases: in vitro antibacterial MIC, agar plate dilution
Assay type in all cases: cell-based
[1] = tested on: Enterobacter cloacae VGH 84-37; conditions: Enterobacter cloacae, VGH8437, 18 h, 35° C., read-out: MIC
Protocol: (§1) The in vitro antimicrobial spectrum of the compounds of ths invention were determined by the agar plate dilution method with Mueller-Hinton agar and an inoculum of each test organism of approximately 10^4 colony forming units delivered by the Steers replicating device. The minimal inhibitory concentration (MIC) in mcg/ml is defined as the lowest concentration of test compound that inhibited visible growth after 18 hours incubation at 35° C. Results are given in Table I, with the test compounds identified by the number of their hereinafter described examples.

[2] = tested on: Staphylococcus aureus Smith; conditions: Staphylococcus aureus, 18 h, 35° C., read-out: MIC
Protocol: as §1

[3] = tested on: Morganella morganii VGH 84-11; conditions: VGH8411, 18 hours, 35° C., read-out: MIC
Protocol: as §1

[4] = tested on: Escherichia coli ATCC 25922; conditions: Escherichia coli, ATCC25922, 18 h, 35° C., read-out: MIC
Protocol: as §1

[5] = tested on: Klebsiella pneumoniae AD; conditions: Klebsiella pneumoniae, 18 h, 35° C., read-out: MIC
Protocol: as §1

[6] = tested on: Proteus rettgeri CMC 84-41; conditions: Providencia rettgeri, CMC8441, 18 h, 35° C., read-out: MIC
Protocol: as §1

[7] = tested on: Klebsiella pneumoniae MOR 84-4; conditions: Klebsiella pneumoniae, MOR844, 18 h, 35° C., read-out: MIC
Protocol: as §1

[8] = tested on: Escherichia coli CMC 84-11; conditions: Escherichia coli, CMC8411, 18 h, 35° C., read-out: MIC
Protocol: as §1

[9] = tested on: Enterobacter aerogenes VGH 84-36; conditions: Klebsiella aerogenes, VGH8436, 18 hours, 35° C., read-out: MIC
Protocol: as §1

[10] = tested on: Pseudomonas aeruginosa VGH 84-4; conditions: Pseudomonas aeruginosa, VGH844, 18 h, 35° C., read-out: MIC
Protocol: as §1

[11] = tested on: Staphylococcus aureus ATCC 25913; conditions: ATCC25913, 18 hours, 35° C.
Protocol: as §1

| SMILES | MIC [1] | MIC [2] | MIC [3] | MIC [4] | MIC [5] | MIC [6] | MIC [7] | MIC [8] | MIC [9] | MIC [10] | MIC [11] |
| --- | --- | --- | --- | --- | --- | --- | --- | --- | --- | --- | --- |
| CCn1cc(C(=O)O)c(=O)c2cc(F)c(N3CCNC(CN(C)C)C3)cc21 (centres unmarked) [Example 2, 7-[3-[(Dimethylamino)methyl]-1-piperazinyl]-1-ethyl-6-fluoro-1,4-dihvdro-4-oxo-3-quinolinecarboxylic acid] | 1 µg/mL (≈ 2.66 µM) | 0.5 µg/mL (≈ 1.33 µM) | 2 µg/mL (≈ 5.31 µM) | 2 µg/mL (≈ 5.31 µM) | 2 µg/mL (≈ 5.31 µM) | 2 µg/mL (≈ 5.31 µM) | 4 µg/mL (≈ 10.6 µM) | 2 µg/mL (≈ 5.31 µM) | 4 µg/mL (≈ 10.6 µM) | 16 µg/mL (≈ 42.5 µM) | 2 µg/mL (≈ 5.31 µM) |
| CCn1cc(C(=O)O)c(=O)c2cc(F)c(N3CCNC(COC)C3)cc21 (centres unmarked) [Example 7, 1-Ethyl-6-fluoro-1,4-dihydro-7-[3-(methoxymethyl)-1-piperazinyl]-4-oxo-3-quinolinecarboxylic acid] | 0.25 µg/mL (≈ 0.688 µM) | 0.5 µg/mL (≈ 1.38 µM) | 0.25 µg/mL (≈ 0.688 µM) | 0.5 µg/mL (≈ 1.38 µM) | 0.25 µg/mL (≈ 0.688 µM) | 0.5 µg/mL (≈ 1.38 µM) | 0.5 µg/mL (≈ 1.38 µM) | 0.25 µg/mL (≈ 0.688 µM) | 0.5 µg/mL (≈ 1.38 µM) | 8 µg/mL (≈ 22 µM) | 2 µg/mL (≈ 5.5 µM) |
| CCn1cc(C(=O)O)c(=O)c2cc(F)c(N3CCNC(COc4ccccc4)C3)cc21 (centres unmarked) [Example 9, 1-Ethyl-6-fluoro-1,4-dihydro-4-oxo-7-[3-(phenoxy-methyl]-1-piperazinyl]-3-quinolinecarboxylic acid] | 0.25 µg/mL (≈ 0.588 µM) | ≤ 0.12 µg/mL | 0.5 µg/mL (≈ 1.18 µM) | 0.5 µg/mL (≈ 1.18 µM) | 0.5 µg/mL (≈ 1.18 µM) | 0.5 µg/mL (≈ 1.18 µM) | 0.5 µg/mL (≈ 1.18 µM) | 0.5 µg/mL (≈ 1.18 µM) | 1 µg/mL (≈ 2.35 µM) | 8 µg/mL (≈ 18.8 µM) | 0.5 µg/mL (≈ 1.18 µM) |
| CCn1cc(C(=O)O)c(=O)c2cc(F)c(N3CCN(C)C(COC)C3)cc21 (centres unmarked) [Example 10, 1-Ethyl-6-fluoro-1,4-dihydro-7-[3-(methoxymethyl)-4-methyl-1-piperazinyl]-4-oxo-3-quinolinecarboxylic acid] | 1 µg/mL (≈ 2.65 µM) | 1 µg/mL (≈ 2.65 µM) | 2 µg/mL (≈ 5.3 µM) | 2 µg/mL (≈ 5.3 µM) | 1 µg/mL (≈ 2.65 µM) | 0.5 µg/mL (≈ 1.32 µM) | 2 µg/mL (≈ 5.3 µM) | 1 µg/mL (≈ 2.65 µM) | 2 µg/mL (≈ 5.3 µM) | 32 µg/mL (≈ 84.8 µM) | 2 µg/mL (≈ 5.3 µM) |
| CCn1cc(C(=O)O)c(=O)c2cc(F)c(N3CCN(C)C(COc4ccccc4)C3)cc21 (centres unmarked) [Example 11, 1-Ethyl-6-fluoro-1,4-dihydro-7-[4-methyl-3-(phenoxy-methyl)-1-piperazinyl]-4-oxo-3-quinolinecarboxylic acid] | 4 µg/mL (≈ 9.1 µM) | 1 µg/mL (≈ 2.28 µM) | 4 µg/mL (≈ 9.1 µM) | 4 µg/mL (≈ 9.1 µM) | 4 µg/mL (≈ 9.1 µM) | 2 µg/mL (≈ 4.55 µM) | 8 µg/mL (≈ 18.2 µM) | 2 µg/mL (≈ 4.55 µM) | 8 µg/mL (≈ 18.2 µM) | 64 µg/mL (≈ 146 µM) | 2 µg/mL (≈ 4.55 µM) |
| CCn1cc(C(=O)O)c(=O)c2cc(F)c(N3CCNC(c4ccc(Br)s4)C3)cc21 (centres unmarked) [Example 13, 7-[3-(5-Bromo-2-thienyl)-1-piperazinyl]-1-ethyl-6-fluoro-1,4-dihydro-4-oxo-3-quinolinecarboxylic acid] | 32 µg/mL (≈ 66.6 µM) | 0.5 µg/mL (≈ 1.04 µM) | 16 µg/mL (≈ 33.3 µM) | 16 µg/mL (≈ 33.3 µM) | 16 µg/mL (≈ 33.3 µM) | 16 µg/mL (≈ 33.3 µM) | 64 µg/mL (≈ 133 µM) | 16 µg/mL (≈ 33.3 µM) | > 256 µg/mL | > 256 µg/mL | 2 µg/mL (≈ 4.16 µM) |
| CCn1cc(C(=O)O)c(=O)c2cc(F)c(N3CCNC(c4cccs4)C3)cc21 (centres unmarked) [Example 26, 1-Ethyl-6-fluoro-1,4-dihydro-4-oxo-7-[3-(2-thienyl)-1-piperazinyl]-3-auinolinecarboxylic acid] | 0.5 µg/mL (≈ 1.25 µM) | 0.25 µg/mL (≈ 0.623 µM) | 0.5 µg/mL (≈ 1.25 µM) | 1 µg/mL (≈ 2.49 µM) | 1 µg/mL (≈ 2.49 µM) | 1 µg/mL (≈ 2.49 µM) | 1 µg/mL (≈ 2.49 µM) | 0.5 µg/mL (≈ 1.25 µM) | 2 µg/mL (≈ 4.98 µM) | 16 µg/mL (≈ 39.9 µM) | 0.5 µg/mL (≈ 1.25 µM) |
| CCn1cc(C(=O)O)c(=O)c2cc(F)c(N3CCN(C)C(c4cccs4)C3)cc21 (centres unmarked) [Example 31, 1-Ethyl-6-fluoro-1,4-dihydro-7-[4-methyl-3-(2-thienyl)piperazinyl]-4-oxo-3-quinolinecarboxylic acid] | 4 µg/mL (≈ 9.63 µM) | 0.25 µg/mL (≈ 0.602 µM) | 8 µg/mL (≈ 19.3 µM) | 4 µg/mL (≈ 9.63 µM) | 4 µg/mL (≈ 9.63 µM) | 8 µg/mL (≈ 19.3 µM) | 8 µg/mL (≈ 19.3 µM) | 4 µg/mL (≈ 9.63 µM) | 16 µg/mL (≈ 38.5 µM) | 32 µg/mL (≈ 77 µM) | 1 µg/mL (≈ 2.41 µM) |
| CCn1cc(C(=O)O)c(=O)c2cc(F)c(N3CCN(C)C(c4ccco4)C3)cc21 (centres unmarked) [Example 32, 1-Ethyl-6-fluoro-7-[3-(2-furanyl)-4-methyl-1-piperazinyl]-1,4-dihydro-4-oxo-3-quinolinecarboxylic acid] | 1 µg/mL (≈ 2.5 µM) | 0.25 µg/mL (≈ 0.626 µM) | 2 µg/mL (≈ 5.01 µM) | 1 µg/mL (≈ 2.5 µM) | 2 µg/mL (≈ 5.01 µM) | 2 µg/mL (≈ 5.01 µM) | 2 µg/mL (≈ 5.01 µM) | 1 µg/mL (≈ 2.5 µM) | 4 µg/mL (≈ 10 µM) | 16 µg/mL (≈ 40.1 µM) | 1 µg/mL (≈ 2.5 µM) |
| CCn1cc(C(=O)O)c(=O)c2cc(F)c(N3CCNC(c4ccc(Cl)s4)C3)cc21 (centres unmarked) [Example 34, 7-[3-(5-Chloro-2-thienyl)-1-piperazinyl]-1-ethyl-6-fluoro-1,4-dihydro-4-oxo-3-quinolinecarboxylic acid] | 1 µg/mL (≈ 2.29 µM) | 0.25 µg/mL (≈ 0.574 µM) | 1 µg/mL (≈ 2.29 µM) | 1 µg/mL (≈ 2.29 µM) | 1 µg/mL (≈ 2.29 µM) | 1 µg/mL (≈ 2.29 µM) | 2 µg/mL (≈ 4.59 µM) | 1 µg/mL (≈ 2.29 µM) | 4 µg/mL (≈ 9.18 µM) | 16 µg/mL (≈ 36.7 µM) | 0.25 µg/mL (≈ 0.574 µM) |
| CCn1cc(C(=O)O)c(=O)c2cc(F)c(N3CCN(C)C(c4ccsc4)C3)cc21 (centres unmarked) [Example 35, 1Ethyl-6-fluoro-1,4-dihydro-7-[4-methyl-3-(3-thienyl)-1-piperazinyl]-4-oxo-3-quinolinecarboxylic acid] | 2 µg/mL (≈ 4.81 µM) | ≤ 0.12 µg/mL | 2 µg/mL (≈ 4.81 µM) | 2 µg/mL (≈ 4.81 µM) | 2 µg/mL (≈ 4.81 µM) | 2 µg/mL (≈ 4.81 µM) | 4 µg/mL (≈ 9.63 µM) | 1 µg/mL (≈ 2.41 µM) | 4 µg/mL (≈ 9.63 µM) | 32 µg/mL (≈ 77 µM) | 0.5 µg/mL (≈ 1.2 µM) |
| CCn1cc(C(=O)O)c(=O)c2cc(F)c(N3CCN(C)C(c4ccc(C)s4)C3)cc21 (centres unmarked) [Example 38, 1-Ethyl-6-fluoro-1,4-dihydro-7-[4-methyl-3-(5-methyl-2-thienyl)-1-piperazinyl]-4-oxo-3-quinolinecarboxylic acid] | 8 µg/mL (≈ 18.6 µM) | 0.25 µg/mL (≈ 0.582 µM) | 8 µg/mL (≈ 18.6 µM) | 4 µg/mL (≈ 9.31 µM) | 4 µg/mL (≈ 9.31 µM) | 4 µg/mL (≈ 9.31 µM) | 8 µg/mL (≈ 18.6 µM) | 4 µg/mL (≈ 9.31 µM) | 4 µg/mL (≈ 9.31 µM) | > 256 µg/mL | 0.25 µg/mL (≈ 0.582 µM) |
| CCn1cc(C(=O)O)c(=O)c2cc(F)c(N3CCNC(c4cc(C)cs4)C3)cc21 (centres unmarked) [Example 40, 1-Ethyl-6-fluoro-1,4-dihydro-7-[3-(4-methyl-2-thienyl)-1-piperazinyl]-4-oxo-3-quinolinecarboxylic acid] | 0.5 µg/mL (≈ 1.2 µM) | ≤ 0.12 µg/mL | 0.5 µg/mL (≈ 1.2 µM) | 0.5 µg/mL (≈ 1.2 µM) | 0.5 µg/mL (≈ 1.2 µM) | 0.5 µg/mL (≈ 1.2 µM) | 0.5 µg/mL (≈ 1.2 µM) | 0.25 µg/mL (≈ 0.602 µM) | 0.5 µg/mL (≈ 1.2 µM) | 8 µg/mL (≈ 19.3 µM) | 0.25 µg/mL (≈ 0.602 µM) |
